Laboratory results: patent publication US20160186196A1 (priority 2009, published 2016)

How the values were obtained:
Type in all cases: cell-based, Chlamydomonas reinhardtii
[1] = system: C. reinhardtii UTEX 2244 and transformants; assay: Rose Bengal photooxidative stress kill curves in liquid culture; conditions: 2 μM Rose Bengal, within the first five hours of exposure
Procedure: Exposure of C. reinhardtii to Rose Bengal was performed as follows. In order to induce apoptosis in C. reinhardtii by the mechanism of photooxidative stress, algal cells were grown on solid medium containing various concentrations of the photosensitizing dye Rose Bengal as described in Fischer et al. (Plant Sci, 168:747-759 (2005)). Duplicate plates with RB levels as high as up to 2.0 μM were initially spread with 1×10^3 cells and resulting colonies were counted after a: period of one week. UTEX 2244 was used as a control. Cell viability is reported as a percentage of surviving cells. Additionally, kill curves were conducted in liquid culture using 100-ml stirrer flasks under the same cultivation conditions mentioned previously, with the exception of aeration. Each culture was seeded with an inoculum of exponentially growing cells (1×10^6 cells ml^−1) and the cell density was measured with a Zeiss Axiovert™ 100 inverted light microscope using a hemocytometer over a one-week period. In the experimental flasks, 100x RB dissolved in isopropanol stock solution was added three days after inoculation to cultures of approximately 0.2×10^6 cells ml^−1 in order achieve a final concentration of 2.0 μM; control flasks were unaltered.

[2] = system: bleomycin-resistant C. reinhardtii stable transformants; assay: Bleocin kill curves on solid medium, mixed population of wild-type and bleomycin-resistant cells; conditions: mixed population wild-type:bleomycin-resistant cells 5×10^7:1×10^3, solid medium, two weeks
Procedure: (§1) Exposure of C. reinhardtii to antibiotic selective pressure was performed as follows. In order to test the efficacy of the antibiotic bleocin (EMD Biosciences) on C. reinhardtii UTEX 2244, algal cells were grown on solid medium containing various concentrations of this selective agent—0, 0.25, 0.5, 1.0, 2.0, 4.0, 6.0, and 8.0 mg L^−1. Duplicate plates were initially spread with either 1×10^3 or 5×10^7 wild-type cells and the cultures' viability was examined over a period of two weeks. Once stable transformants were obtained, this experiment was repeated with a mixed population of wild-type and bleomycin-resistant cells (5×10^7:1×10^3) to verify the emergence of individual colonies from the surrounding lawn of algal cells.

[3] = system: C. reinhardtii UTEX 2244; assay: Minimum inhibitory bleocin concentration on solid medium, wild-type cells
Procedure: as §1

In the case of O=C([O-])c1c(Cl)c(Cl)c(Cl)c(Cl)c1-c1c2cc(I)c(=O)c(I)c-2oc2c(I)c([O-])c(I)cc12.[Na+].[Na+] [Rose Bengal], the “effect on cell populations” value [1] was “all populations experienced some cell death”.
With bleocin the “bleocin concentration in which some stable transformants were able to survive” value [2] was at most 8 mg/L, the “minimum inhibitory concentration (M.I.C.) to eradicate the entire population” value ([3]; high density lawn, 5×10^7 cells per plate, two-week incubation) was “at least 1 mg L^−1” and the “concentration sufficient to completely inhibit growth (absence of colony formation)” value ([3]; low density, 1,000 cells per plate, solid medium) was 0.25 mg/L. For the same compound, the “concentration giving widespread cell death” value ([3]; within only four days of exposure) was “more than 4 mg L^−1”.
